# From patent US8901313B2, “6,5-heterocyclic propargylic alcohol compounds and uses therefor” (Genentech, Inc., priority 2011, dated 2014)
# pKi: −log10 of the molar value.
# Molecular target: T1, nuclear factor-kappa B (NF-kB)-inducing kinase (NIK) (Homo sapiens, UniProt Q99558)
# T1 construct: made in house; host or cells: baculovirus-infected insect cells
# Experiment: NIK Enzyme Inhibition Assay (Transcreener ADP assay)
# Assay type: biochemical
# Conditions: purified NIK 0.2-1 nM, 10 uM ATP, fluorescence polarization, Morrison's quadratic equation; read-out: inhibitory value (Ki) for NIK
# T1 sequence (Q99558 whole entry): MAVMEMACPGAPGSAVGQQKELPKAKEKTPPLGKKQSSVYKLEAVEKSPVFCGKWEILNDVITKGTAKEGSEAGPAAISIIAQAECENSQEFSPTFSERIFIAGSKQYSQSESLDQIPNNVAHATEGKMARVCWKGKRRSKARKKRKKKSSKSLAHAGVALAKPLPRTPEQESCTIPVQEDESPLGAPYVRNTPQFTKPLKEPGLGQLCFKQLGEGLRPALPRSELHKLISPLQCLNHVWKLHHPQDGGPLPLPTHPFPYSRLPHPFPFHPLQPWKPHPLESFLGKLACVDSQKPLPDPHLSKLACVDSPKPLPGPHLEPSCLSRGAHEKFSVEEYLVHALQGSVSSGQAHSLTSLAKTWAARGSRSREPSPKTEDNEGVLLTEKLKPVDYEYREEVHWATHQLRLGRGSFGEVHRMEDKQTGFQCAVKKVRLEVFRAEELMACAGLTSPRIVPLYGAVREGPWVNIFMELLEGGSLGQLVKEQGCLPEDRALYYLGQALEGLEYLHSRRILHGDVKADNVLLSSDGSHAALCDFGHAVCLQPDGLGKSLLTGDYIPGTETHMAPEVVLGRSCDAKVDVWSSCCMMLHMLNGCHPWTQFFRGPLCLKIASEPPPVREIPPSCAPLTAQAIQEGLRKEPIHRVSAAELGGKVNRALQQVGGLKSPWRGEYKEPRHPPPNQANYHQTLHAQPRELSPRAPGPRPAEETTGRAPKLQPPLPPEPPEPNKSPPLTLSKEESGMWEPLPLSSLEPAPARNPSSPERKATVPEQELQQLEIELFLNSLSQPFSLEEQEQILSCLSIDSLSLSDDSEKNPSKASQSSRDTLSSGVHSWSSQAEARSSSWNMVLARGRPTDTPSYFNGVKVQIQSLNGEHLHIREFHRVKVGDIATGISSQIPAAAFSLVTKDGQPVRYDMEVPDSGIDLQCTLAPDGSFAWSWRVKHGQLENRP
row,Compound,pKi
1,"Cc1cc(C(C)(O)C#Cc2ccc3c(C(NC4CCCC4)C4CC4)nn(-c4ccnc(N)n4)c3c2)no1 (stereo not drawn) [Example T1.1-79, 4-[1-(2-aminopyrimidin-4-yl)-3-[(cyclopentylamino)-cyclopropyl-methyl]indazol-6-yl]-2-(5-methyl-isoxazol-3-yl)but-3-yn-2-ol]",7.70
2,"Cc1nc([C@](C)(O)C#Cc2ccc3c(c2)n(-c2ccnc(N)n2)c(=O)n3CC2CC2)no1 [Example T1.1-81, 3-(2-aminopyrimidin-4-yl)-1-(cyclopropylmethyl)-5-[(3R)-3-hydroxy-3-(5-methyl-1,2,4-oxadiazol-3-yl)but-1-ynyl] benzimidazol-2-one]",7.62
3,"Cc1noc(C(C)(O)C#Cc2ccc3c(C(=O)N(C)C)nn(-c4ccnc(N)n4)c3c2)n1 (stereo not drawn) [Example T1.1-82, 1-(2-aminopyrimidin-4-yl)-6-[3-hydroxy-3-(3-methyl-1,2,4-oxadiazol-5-yl)but-1-ynyl]-N,N-dimethyl-indazole-3-carboxamide]",7.60
4,"Cn1cnc(C(C)(O)C#Cc2ccc3c(C(=O)N4CCOCC4)nn(-c4ccnc(N)n4)c3c2)n1 (stereo not drawn) [Example T1.1-83, [1-(2-aminopyrimidin-4-yl)-6-[3-hydroxy-3-(1-methyl-1,2,4-triazol-3-yl)but-1-ynyl]indazol-3-yl]-morpholino-methanone]",7.60
5,"COCc1cc(C(C)(O)C#Cc2ccc3c(C(=O)N4CCOCC4)nn(-c4ccnc(N)n4)c3c2)no1 (stereo not drawn) [Example T1.1-84, [1-(2-aminopyrimidin-4-yl)-6-[3-hydroxy-3-[5-(methoxymethyl)isoxazol-3-yl]but-1-ynyl]indazol-3-yl]-morpholino-methanone]",7.57
6,"Cc1cc(C(C)(O)C#Cc2ccc3c(C(NC4CCCC4)C4CC4)nn(-c4ccnc(N)n4)c3c2)no1 (stereo not drawn) [Example T1.1-85, 4-[1-(2-aminopyrimidin-4-yl)-3-[(cyclopentylamino)-cyclopropyl-methyl]indazol-6-yl]-2-(5-methyl-isoxazol-3-yl)but-3-yn-2-ol]",7.57
7,"Nc1nccc(-n2nc(C(=O)N3CCOCC3)c3ccc(C#CC(O)(CF)CF)cc32)n1 [Example T1.1-86, [1-(2-aminopyrimidin-4-yl)-6-[4-fluoro-3-(fluoromethyl)-3-hydroxy-but-1-ynyl]indazol-3-yl]-morpholino-methanone]",7.51
8,"Cn1cc(-c2cnc(N)nc2-n2ncc3ccc(C#CC(C)(C)O)cc32)cn1 [Example T1.1-87, 4-[1-[2-amino-5-(1-methyl-pyrazol-4-yl)pyrimidin-4-yl]indazol-6-yl]-2-methyl-but-3-yn-2-ol]",7.41
9,"Cc1cc([C@@](C)(O)C#Cc2ccc3c(C(=O)N4CCOCC4)nn(-c4ccnc(N)n4)c3c2)no1 [Example T1.1-88, [1-(2-aminopyrimidin-4-yl)-6-[(3S)-3-hydroxy-3-(5-methylisoxazol-3-yl)but-1-ynyl]indazol-3-yl]-morpholino-methanone]",7.34
10,"CN1CCN(C(=O)c2nn(-c3ccnc(N)n3)c3cc(C#CC(C)(O)c4ncccn4)ccc23)CC1 (stereo not drawn) [Example T1.1-89, [1-(2-aminopyrimidin-4-yl)-6-(3-hydroxy-3-pyrimidin-2-yl-but-1-ynyl)indazol-3-yl]-(4-methylpiperazin-1-yl)methanone]",7.28
11,"Cc1nn(-c2ccnc(N)n2)c2cc(C#CC(C)(O)c3nccn3C)ccc12 (stereo not drawn) [Example T1.1-90, 4-[1-(2-aminopyrimidin-4-yl)-3-methyl-indazol-6-yl]-2-(1-methyl-imidazol-2-yl)but-3-yn-2-ol]",7.27
12,"Cc1cnc(C(C)(O)C#Cc2ccc3c(C)nn(-c4ccnc(N)n4)c3c2)cn1 (stereo not drawn) [Example T1.1-91, 4-[1-(2-aminopyrimidin-4-yl)-3-methyl-indazol-6-yl]-2-(5-methyl-pyrazin-2-yl)but-3-yn-2-ol]",7.16
13,"CC(C)(O)C#Cc1ccc2cnn(-c3nc(N)ncc3-c3cn[nH]c3)c2c1 [Example T1.1-92, 4-[1-[2-amino-5-(1H-pyrazol-4-yl)pyrimidin-4-yl]indazol-6-yl]-2-methyl-but-3-yn-2-ol]",7.15
14,"Cc1cc(-n2nc(C)c3ccc(C#C[C@@](C)(O)c4noc(C)n4)cc32)nc(N)n1 [Example T1.1-93, (2R)-4-[1-(2-amino-6-methyl-pyrimidin-4-yl)-3-methyl-indazol-6-yl]-2-(5-methyl-1,2,4-oxadiazol-3-yl)but-3-yn-2-ol]",7.11
15,"Cc1cc(-n2nc(C)c3ccc(C#CC(C)(O)c4ncccn4)cc32)nc(N)n1 (stereo not drawn) [Example T1.1-94, 4-[1-(2-amino-6-methyl-pyrimidin-4-yl)-3-methyl-indazol-6-yl]-2-pyrimidin-2-yl-but-3-yn-2-ol]",7.07
16,"Cn1ccc(C(C)(O)C#Cc2ccc3c(C(C)(C)O)nn(-c4ccnc(N)n4)c3c2)n1 (stereo not drawn) [Example T1.1-95, 4-[1-(2-aminopyrimidin-4-yl)-3-(1-hydroxy-1-methyl-ethyl)indazol-6-yl]-2-(1-methylpyrazol-3-yl)but-3-yn-2-ol]",7.06

# Continued by rising pKi, values first:
row,pKi,Compound
1,7.70,"CC(O)(C#Cc1ccc2c(CN3CCOCC3)nn(-c3ccnc(N)n3)c2c1)c1ncccn1 (stereo not drawn) [Example T1.1-78, 4-[1-(2-aminopyrimidin-4-yl)-3-(morpholinomethyl)indazol-6-yl]-2-pyrimidin-2-yl-but-3-yn-2-ol]"
2,7.80,"Cc1nn(-c2ccnc(N)n2)c2cc(C#CC(C)(O)c3cocn3)ccc12 (stereo not drawn) [Example T1.1-76, 4-[1-(2-aminopyrimidin-4-yl)-3-methyl-indazol-6-yl]-2-oxazol-4-yl-but-3-yn-2-ol]"
3,7.85,"CC(O)(C#Cc1ccc2c(C(=O)N3CCOCC3)nn(-c3ccnc(N)n3)c2c1)CF (stereo not drawn) [Example T1.1-75, [1-(2-aminopyrimidin-4-yl)-6-(4-fluoro-3-hydroxy-3-methyl-but-1-ynyl)indazol-3-yl]-morpholino-methanone]"
4,7.89,"CC1CN(C(=O)c2nn(-c3ccnc(N)n3)c3cc(C#CC(C)(O)c4ncccn4)ccc23)CC(C)O1 (stereo not drawn) [Example T1.1-74, [1-(2-aminopyrimidin-4-yl)-6-(3-hydroxy-3-pyrimidin-2-yl-but-1-ynyl)indazol-3-yl]-(2,6-dimethylmorpholin-4-yl) methanone]"
5,7.92,"CC(O)(C#Cc1ccc2nc(OC3COC3)n(-c3ccnc(N)n3)c2c1)c1ncccn1 (stereo not drawn) [Example T1.1-72, 4-[3-(2-aminopyrimidin-4-yl)-2-(oxetan-3-yloxy)benzimidazol-5-yl]-2-pyrimidin-2-yl-but-3-yn-2-ol]"
6,7.92,"Cc1nn(-c2ccnc(N)n2)c2cc(C#CC(C)(O)c3cc[nH]n3)ccc12 (stereo not drawn) [Example T1.1-73, 4-[1-(2-aminopyrimidin-4-yl)-3-methyl-indazol-6-yl]-2-(1H-pyrazol-3-yl)but-3-yn-2-ol]"
7,8.00,"Cc1nc([C@](C)(O)C#Cc2ccc3c(C(=O)N4CCCCC4)nn(-c4nc(N)ncc4Cl)c3c2)no1 [Example T1.1-71, [1-(2-amino-5-chloro-pyrimidin-4-yl)-6-[(3R)-3-hydroxy-3-(5-methyl-1,2,4-oxadiazol-3-yl)but-1-ynyl]indazol-3-yl]-(1-piperidyl)methanone]"
8,8.05,"Cc1nc([C@](C)(O)C#Cc2ccc3c(C(=O)N4CCC(F)CC4)nn(-c4nc(N)ncc4Cl)c3c2)no1 [Example T1.1-68, [1-(2-amino-5-chloro-pyrimidin-4-yl)-6-[(3R)-3-hydroxy-3-(5-methyl-1,2,4-oxadiazol-3-yl)but-1-ynyl]indazol-3-yl]-(4-fluoro-1-piperidyl)methanone]"
9,8.05,"CC1CN(C(=O)c2nn(-c3ccnc(N)n3)c3cc(C#CC(C)(O)c4ncccn4)ccc23)CC(C)O1 (stereo not drawn) [Example T1.1-69, [1-(2-aminopyrimidin-4-yl)-6-(3-hydroxy-3-pyrimidin-2-yl-but-1-ynyl)indazol-3-yl]-(2,6-dimethylmorpholin-4-yl) methanone]"
10,8.05,"Cc1cc(C(C)(O)C#Cc2ccc3nc(OCC4COC(C)(C)O4)n(-c4ccnc(N)n4)c3c2)no1 (stereo not drawn) [Example T1.1-70, 4-[3-(2-aminopyrimidin-4-yl)-2-[(2,2-dimethyl-1,3-dioxolan-4-yl)methoxy]benzimidazol-5-yl]-2-(5-methylisoxazol-3-yl)but-3-yn-2-ol]"
11,8.10,"CC(C)(O)c1nn(-c2ccnc(N)n2)c2cc(C#CC3(O)CCc4cccnc43)ccc12 (stereo not drawn) [Example T1.1-67, 7-[2-[1-(2-aminopyrimidin-4-yl)-3-(1-hydroxy-1-methyl-ethyl)indazol-6-yl]ethynyl]-5,6-dihydrocyclopenta[b] pyridin-7-ol]"
12,8.15,"Cc1nc([C@](C)(O)C#Cc2ccc3c(CN4CC(F)(F)C4)nn(-c4ccnc(N)n4)c3c2)no1 [Example T1.1-65, (2R)-4-[1-(2-aminopyrimidin-4-yl)-3-[(3,3-difluoroazetidin-1-yl)methyl]indazol-6-yl]-2-(5-methyl-1,2,4-oxadiazol-3-yl)but-3-yn-2-ol]"
13,8.15,"CC(O)(C#Cc1ccc2c(C(=O)N3CC4CC3CO4)nn(-c3ccnc(N)n3)c2c1)c1ncccn1 (stereo not drawn) [Example T1.1-66, [1-(2-aminopyrimidin-4-yl)-6-(3-hydroxy-3-pyrimidin-2-yl-but-1-ynyl)indazol-3-yl]-(2-oxa-5-azabicyclo[2.2.1]heptan-5-yl)methanone]"
14,8.22,"CC(O)(C#Cc1ccc2c(CO)nn(-c3ccnc(N)n3)c2c1)c1ncccn1 (stereo not drawn) [Example T1.1-61, 4-[1-(2-aminopyrimidin-4-yl)-3-(hydroxymethyl)indazol-6-yl]-2-pyrimidin-2-yl-but-3-yn-2-ol]"
15,8.22,"Cc1nc2ccc(C#CC(C)(O)c3ncccn3)cc2n1-c1ncnc(N)n1 (stereo not drawn) [Example T1.1-62, 4-[3-(4-amino-1,3,5-triazin-2-yl)-2-methyl-benzimidazol-5-yl]-2-pyrimidin-2-yl-but-3-yn-2-ol]"
16,8.22,"CC(O)(C#Cc1ccc2c(C(=O)N3CC4(COC4)C3)nn(-c3ccnc(N)n3)c2c1)c1ncccn1 (stereo not drawn) [Example T1.1-63, [1-(2-aminopyrimidin-4-yl)-6-(3-hydroxy-3-pyrimidin-2-yl-but-1-ynyl)indazol-3-yl]-(2-oxa-6-azaspiro[3.3]heptan-6-yl)methanone]"
17,8.22,"CN(C)C(=O)c1nn(-c2ccnc(N)n2)c2cc(C#CC(C)(O)c3ncccn3)ccc12 (stereo not drawn) [Example T1.1-64, 1-(2-aminopyrimidin-4-yl)-6-(3-hydroxy-3-pyrimidin-2-yl-but-1-ynyl)-N,N-dimethyl-indazole-3-carboxamide]"
